Reference: patent US20180273531A1, “PYRIMIDINE COMPOUND AND MEDICAL USE THEREOF” (Japan Tobacco Inc., priority 2004, published 2018)
pIC50: −log10 of the molar value.

Tests used:
Assay type in all cases: cell-based
[1] = test system: Renal cancer cell line ACHN cell; assay: Growth inhibitory effect against cancer cell lines (3H-thymidine uptake), ACHN
Procedure: (§1) Renal cancer cell line ACHN cell or colorectal cancer cell line HT-29 cells were cultured in a 96 well plate at 1.0×10^4 cells/90 μL/well for 24 hrs, then a test substance dissolved in DMSO (dimethyl sulfoxide) was added. After 18 hrs, ^3H-thymidine (0.25 μCi/well) was added and the cells were cultured for 6 hrs. Using a cell harvester, the cells were recovered on a UniFilter-96 GF/B glass filter and the ^3H radioactivity uptaken by the cells was measured by TopCount (Packard). As a control, DMSO was used and the activity of the test substance was expressed in the concentration (IC50) necessary for inhibiting ^3H radioactivity uptaken by the cell to 50% of that of the control group. The measurements were made in triplicate.

[2] = test system: colorectal cancer cell line HT-29 cells; assay: Growth inhibitory effect against cancer cell lines (3H-thymidine uptake), HT-29; conditions: test substance 18 hrs, then 3H-thymidine 6 hrs, triplicate
Procedure: as §1

p15 protein = assay: Evaluation of p15 induction activity (Western blotting); conditions: test substance 0.1 μM, 24 hrs, ACHN cells or HT-29 cells, compared to DMSO, n=2
Procedure: ACHN cells or HT-29 cells were cultured in a 6 well plate at 2.5×10^5 cells/1.8 mL/well for 24 hrs, then a test substance (0.1 μM) dissolved in DMSO was added. After 24 hrs, cells were detached using trypsin-EDTA (ethylene diamine tetraacetic acid) and solubilized with NuPAGE LDS sample buffer (Invitrogen). Using an RC DC protein assay kit (BIO-RAD), the protein concentration of the sample was quantitated, and a sample in an amount corresponding to 10 μg of BSA (bovine serum albumin) was analyzed by Western blotting using an anti-p15 antibody. The density of the band stained with the anti-p15 antibody was measured by a densitometer to quantify the amount of p15 protein. As a control, DMSO was used and the test was performed with n=2 and the average protein amount was determined.

[3] = Homo sapiens, HT-29, inhibition of 3H-thymidine uptake

SMILES | pIC50 ([1]; Homo sapiens, ACHN) | pIC50 [2, 3] | fold induction at 0.1 µM (p15 protein) | pIC50 ([1]; inhibition of 3H-thymidine uptake, test substance 18 hrs, then 3H-thymidine 6 hrs, triplicate) | pIC50 ([2]; inhibition of 3H-thymidine uptake) | Induction of p15 protein (p15 protein)
Cc1c(=O)n(C)c(Nc2ccc(I)cc2F)c2c(=O)n(C3CC3)c(=O)n(-c3ccc4c(c3)ncn4C)c12 [Example 4-111] | 6.00 to 7.00 | 7.00 to 8.00 | ≥ 1.5 |  |  | 
CCc1ccc(Nc2c3c(=O)n(C4CC4)c(=O)n(-c4cccc(NS(C)(=O)=O)c4)c3c(C)c(=O)n2C)c(F)c1 [Example 4-25] | 7.00 to 8.00 | > 8.00 |  |  |  | 
Cn1c(=O)cc(Nc2ccc3sccc3c2F)c2c(=O)n(C3CC3)c(=O)n(-c3ccccc3)c21 [Example 1-343] | 6.00 to 7.00 | 7.00 to 8.00 |  |  |  | 
COc1cccc(-n2c(=O)n(C3CC3)c(=O)c3c(Nc4ccc(Br)cc4F)cc(=O)n(C)c32)c1 [Example 1-191] | 6.00 to 7.00 | 7.00 to 8.00 | ≥ 1.5 |  |  | 
Cn1c(=O)cc(Nc2ccc(Br)cc2F)c2c(=O)n(C3CC3)c(=O)n(-c3cccc(S(C)(=O)=O)c3)c21 [Example 1-223] | 6.00 to 7.00 | 7.00 to 8.00 | ≥ 1.5 |  |  | 
CC(=O)Nc1cc(Cl)cc(-n2c(=O)n(C3CC3)c(=O)c3c(Nc4ccc(I)cc4F)n(C)c(=O)c(C)c32)c1 [Example 4-37] | 6.00 to 7.00 | 7.00 to 8.00 |  |  |  | 
CCc1ccc(Nc2c3c(=O)n(CC)c(=O)n(-c4cccc(NS(C)(=O)=O)c4)c3c(C)c(=O)n2C)c(F)c1 [Example 4-44] | 6.00 to 7.00 | 7.00 to 8.00 |  |  |  | 
Cn1c(=O)cc(Nc2ccc(Br)cc2F)c2c(=O)n(C3CC3)c(=O)n(-c3cccc(NS(=O)(=O)CC(F)(F)F)c3)c21 [Example 1-267] | 6.00 to 7.00 | 7.00 to 8.00 |  |  |  | 
Cc1c(=O)n(C)c(Nc2ccc(I)cc2F)c2c(=O)n(C3CC3)c(=O)n(-c3cccc(NC(=O)c4cccn4C)c3)c12 [Example 4-87] | 6.00 to 7.00 | 7.00 to 8.00 |  |  |  | 
Cc1c(=O)n(C)c(Nc2ccc(I)cc2F)c2c(=O)n(C3CC3)c(=O)n(-c3ccc4c(c3)ncn4C)c12 [Example 4-112] |  |  |  | 6.00 to 7.00 | > 8.00 | + (As compared to DMSO, not less than 1.5-fold induction of p15 protein)
C#Cc1ccc(Nc2c3c(=O)n(CC)c(=O)n(-c4cccc(NS(=O)(=O)CC)c4)c3c(C)c(=O)n2C)c(F)c1 [Example 4-40] | 7.00 to 8.00 | > 8.00 |  |  |  | 
CCCCC(=O)NCC(=O)Nc1cccc(-n2c(=O)n(C3CC3)c(=O)c3c(Nc4ccc(Br)cc4F)cc(=O)n(C)c32)c1 [Example 1-276] | 6.00 to 7.00 | 7.00 to 8.00 |  |  |  | 
Cn1c(=O)cc(Nc2ccc(Br)cc2F)c2c(=O)n(C3CC3)c(=O)n(-c3cccc(N4CCCC4=O)c3)c21 [Example 1-212] | 6.00 to 7.00 | > 8.00 | ≥ 1.5 |  |  | 
Cc1c(Nc2ccc(Br)cc2F)c2c(=O)n(C3CC3)c(=O)n(-c3cccc(NS(C)(=O)=O)c3)c2n(C)c1=O [Example 1-333] | 7.00 to 8.00 | > 8.00 | ≥ 1.5 |  |  | 
CN(C)CC#Cc1ccc(Nc2cc(=O)n(C)c3c2c(=O)n(C2CC2)c(=O)n3-c2ccccc2)c(F)c1 [Example 1-246] | 6.00 to 7.00 | 7.00 to 8.00 | ≥ 1.5 |  |  | 
Cn1c(=O)cc(Nc2ccc(Br)cc2F)c2c(=O)n(C3CC3)c(=O)n(-c3cccc(C(N)=O)c3)c21 [Example 1-270] | 6.00 to 7.00 | 7.00 to 8.00 |  |  |  | 
CN(C)c1cccc(-n2c(=O)n(C3CC3)c(=O)c3c(Nc4ccc(Br)cc4F)cc(=O)n(C)c32)c1 [Example 1-199] | 6.00 to 7.00 | 7.00 to 8.00 | ≥ 1.5 |  |  | 
CC#Cc1ccc(Nc2c3c(=O)n(C4CC4)c(=O)n(-c4cccc(NC(C)=O)c4)c3c(C)c(=O)n2C)c(F)c1 [Example 4-52] | 6.00 to 7.00 | 6.00 to 7.00 |  |  |  | 
Cc1c(=O)n(C)c(Nc2ccc(Br)cc2F)c2c(=O)n(C3CC3)c(=O)n(-c3ccc([N+](=O)[O-])cc3)c12 [Example 4-5] | 6.00 to 7.00 | 7.00 to 8.00 |  |  |  | 
Cc1c(=O)n(C)c(Nc2ccc(I)cc2F)c2c(=O)n(C3CC3)c(=O)n(-c3cccc(NS(=O)(=O)N(CCO)C(=O)NCCO)c3)c12 [Example 4-96] | 6.00 to 7.00 | 7.00 to 8.00 |  |  |  | 
Cc1ccccc1-n1c(=O)n(C2CC2)c(=O)c2c(Nc3ccc(N(C)C)cc3)cc(=O)n(C)c21 [Example 1-106] | 6.00 to 7.00 | 6.00 to 7.00 | ≥ 1.5 |  |  | 
Cn1c(=O)cc(Nc2ccc(Br)cc2F)c2c(=O)n(C3CC3)c(=O)n(-c3cccc(NS(=O)(=O)c4cccnc4)c3)c21 [Example 1-335] | 6.00 to 7.00 | 7.00 to 8.00 |  |  |  | 

SMILES | pIC50 ([1]; Homo sapiens, ACHN) | pIC50 [2, 3] | fold induction at 0.1 µM (p15 protein) | pIC50 ([1]; inhibition of 3H-thymidine uptake, test substance 18 hrs, then 3H-thymidine 6 hrs, triplicate) | pIC50 ([2]; inhibition of 3H-thymidine uptake) | Induction of p15 protein (p15 protein)
Cc1c(=O)n(C)c(Nc2ccc(I)cc2F)c2c(=O)n(C3CC3)c(=O)n(-c3cccc(NS(=O)(=O)N4CCOCC4)c3)c12 [Example 4-34] | > 8.00 | > 8.00 |  |  |  | 
Cn1c(=O)cc(Nc2ccc(Br)cc2Cl)c2c(=O)n(C3CC3)c(=O)n(-c3ccccc3)c21 [Example 1-176] | 6.00 to 7.00 | 7.00 to 8.00 | ≥ 1.5 |  |  | 
Cn1c(=O)cc(Nc2ccc(Br)cc2)c2c(=O)n(C3CC3)c(=O)n(-c3ccccc3F)c21 [Example 1-113] | 6.00 to 7.00 | 6.00 to 7.00 | ≥ 1.5 |  |  | 
CCC(=O)Nc1cccc(-n2c(=O)n(C3CC3)c(=O)c3c(Nc4ccc(Br)cc4F)cc(=O)n(C)c32)c1 [Example 1-278] | 6.00 to 7.00 | 7.00 to 8.00 |  |  |  | 
CN(C)c1ccc(Nc2cc(=O)n(C)c3c2c(=O)n(C2CC2)c(=O)n3-c2ccccc2)c(F)c1 [Example 1-192] | 6.00 to 7.00 | 7.00 to 8.00 | ≥ 1.5 |  |  | 
Cc1c(=O)n(C)c(Nc2ccc(I)cc2F)c2c(=O)n(C3CC3)c(=O)n(-c3cccc(NC(=O)NCCO)c3)c12 [Example 4-95] | 6.00 to 7.00 | 7.00 to 8.00 |  |  |  | 
CCc1ccc(Nc2c3c(=O)n(C4CC4)c(=O)n(-c4cccc(NS(=O)(=O)CC)c4)c3c(C)c(=O)n2C)c(F)c1 [Example 4-26] | 7.00 to 8.00 | > 8.00 |  |  |  | 
CCn1c(=O)c2c(Nc3ccc(I)cc3F)n(C)c(=O)c(C)c2n(-c2cccc(NS(C)(=O)=O)c2)c1=O [Example 4-20] | 7.00 to 8.00 | > 8.00 |  |  |  | 
C#Cc1ccc(Nc2cc(=O)n(C)c3c2c(=O)n(C2CC2)c(=O)n3-c2ccccc2)c(F)c1 [Example 1-208] | 7.00 to 8.00 | > 8.00 | ≥ 1.5 |  |  | 
CCOC(=O)Nc1cccc(-n2c(=O)n(C3CC3)c(=O)c3c(Nc4ccc(Br)cc4F)cc(=O)n(C)c32)c1 [Example 1-308] | 6.00 to 7.00 | 7.00 to 8.00 |  |  |  | 
C#Cc1ccc(Nc2c3c(=O)n(CC)c(=O)n(-c4cccc(NS(C)(=O)=O)c4)c3c(C)c(=O)n2C)c(F)c1 [Example 4-42] | 7.00 to 8.00 | > 8.00 |  |  |  | 
Cn1c(=O)cc(Nc2ccc(Br)cc2F)c2c(=O)n(C3CC3)c(=O)n(-c3cccc(O)c3)c21 [Example 1-213] | 6.00 to 7.00 | 7.00 to 8.00 | ≥ 1.5 |  |  | 
C#Cc1ccc(Nc2cc(=O)n(C)c3c2c(=O)n(C2CC2)c(=O)n3-c2cccc(NS(=O)(=O)C(C)C)c2)c(F)c1 [Example 1-321] | 7.00 to 8.00 | > 8.00 | ≥ 1.5 |  |  | 
Cn1c(=O)cc(Nc2ccc(Br)cc2F)c2c(=O)n(C3CC3)c(=O)n(-c3ccc(O)cc3)c21 [Example 1-188] | 6.00 to 7.00 | 7.00 to 8.00 | ≥ 1.5 |  |  | 
Cn1c(=O)c2c(Nc3ccc(Br)cc3Cl)cc(=O)n(C)c2n(-c2ccccc2)c1=O [Example 1-200] | 6.00 to 7.00 | 7.00 to 8.00 | ≥ 1.5 |  |  | 
CN(C)c1ccc(Nc2cc(=O)n(C)c3c2c(=O)n(C2CC2)c(=O)n3-c2cccc(N3CCOCC3)c2)c(F)c1 [Example 1-205] | 6.00 to 7.00 | > 8.00 | ≥ 1.5 |  |  | 
Cc1c(=O)n(C)c(Nc2ccc(I)cc2F)c2c(=O)n(C3CC3)c(=O)n(-c3ccc(CC(=O)O)cc3)c12 [Example 4-94] | 6.00 to 7.00 | 7.00 to 8.00 |  |  |  | 
C#Cc1ccc(Nc2c3c(=O)n(C4CC4)c(=O)n(-c4cccc(NC(C)=O)c4)c3c(C)c(=O)n2CC)c(F)c1 [Example 4-46] | 6.00 to 7.00 | 7.00 to 8.00 |  |  |  | 
CCc1ccc(Nc2c3c(=O)n(CC)c(=O)n(-c4cccc(NS(=O)(=O)CC)c4)c3c(C)c(=O)n2C)c(F)c1 [Example 4-41] | 7.00 to 8.00 | 7.00 to 8.00 |  |  |  | 
Cn1c(=O)cc(Nc2ccc(I)cc2F)c2c(=O)n(C3CC3)c(=O)n(-c3ccccc3)c21 [Example 1-207] | 7.00 to 8.00 | > 8.00 | ≥ 1.5 |  |  | 
Cn1c(=O)cc(Nc2ccc(Br)cc2F)c2c(=O)n(C3CC3)c(=O)n(-c3cccc(OCCN4CCOCC4)c3)c21 [Example 1-232] | 6.00 to 7.00 | 7.00 to 8.00 |  |  |  | 
Cn1c(=O)cc(Nc2ccc(Br)cc2F)c2c(=O)n(C3CC3)c(=O)n(-c3cccc(N4CCOCC4)c3)c21 [Example 1-193] | 6.00 to 7.00 | > 8.00 | ≥ 1.5 |  |  | 
